Assays:
[1] = Dynamic Vapor Sorption (moisture sorption); type: physicochemical; details: 95% RH, room temperature
Procedure: Dynamic Vapor Sorption (DVS): Hygroscopicity was determined on a Surface Measurement Systems DVS. Typically, a sample of about 2-10 mg was loaded into the DVS instrument sample pan. The sample was analyzed on a DVS automated sorption analyzer at room temperature. The relative humidity was increased from 0 to 95% RH at 10% RH step, then at 95% RH. The relative humidity was then decreased in a similar manner to accomplish a full adsorption/desorption cycle.

[2] = Grinding studies, solid form by XRPD; type: physicochemical
Procedure: Grinding Studies: Grinding experiments were performed using a Wig-L-Bug shaker. About 50 mg of Compound A hydrochloride was added to a polystyrene tube (1″×½″) with a Plexi bead (⅜″). The vial was capped and placed on the shaker for about 50 s. For wet grinding, drops of water were added to the vial and a wet paste was formed prior to placing on the shaker.
X-ray Powder Diffraction (XRPD): XRPD analysis was conducted on a Thermo ARL X'TRA™ X-ray powder diffractometer using Cu Kα radiation at 1.54 Å. The instrument was equipped with a fine focus X-ray tube. The voltage and amperage of X-ray generator were set at 45 kV and 40 mA, respectively. The divergence slices were set at 4 mm and 2 mm and the measuring slices were set at 0.5 mm and 0.2 mm. Diffracted radiation was detected by a peltier-cooled Si(Li) solid-state detector. A theta-two theta continuous scan at 2.40°/min (0.5 sec/0.02° step) from 1.5°2θ to 40°2θ was used. A sintered alumina standard was used to check the peak position. In general, positions of XRPD peaks are expected to individually vary on a measurement-by-measurement basis by about +0.2°2θ. In general, as understood in the art, two XRPD patterns match one another if the characteristic peaks of the first pattern are located at approximately the same positions as the characteristic peaks of the second pattern. As understood in the art, determining whether two XRPD patterns match or whether individual peaks in two XRPD patterns match may require consideration of individual variables and parameters such as, but not limited to, preferred orientation, phase impurities, degree of crystallinity, particle size, variation in diffractometer instrument setup, variation in XRPD data collection parameters, and/or variation in XRPD data processing, among others. The determination of whether two patterns match may be performed by eye and/or by computer analysis.

Cc1nc2cccc(N)c2c(=O)n1C1CCC(=O)NC1=O (stereo not shown) [Compound A, 3-(5-amino-2-methyl-4-oxo-4H-quinazolin-3-yl)-piperidine-2,6-dione]
Moisture Sorption at 95% RH [1]: 3.19 wt %

Cc1nc2cccc(N)c2c(=O)n1C1CCC(=O)NC1=O (stereo not shown) [Form A, 3-(5-amino-2-methyl-4-oxo-4H-quinazolin-3-yl)-piperidine-2,6-dione]
XRPD Result after grinding ([2]; Dry grinding): Form A1 | XRPD Result after grinding ([2]; Wet grinding (paste)): Form A1

Cc1nc2cccc(N)c2c(=O)n1C1CCC(=O)NC1=O (stereo not shown) [Form B, 3-(5-amino-2-methyl-4-oxo-4H-quinazolin-3-yl)-piperidine-2,6-dione]
Moisture Sorption at 95% RH ([1]; listed as B): 0.11 wt %

Cc1nc2cccc(N)c2c(=O)n1C1CCC(=O)NC1=O (stereo not shown) [Form C, 3-(5-amino-2-methyl-4-oxo-4H-quinazolin-3-yl)-piperidine-2,6-dione]
Moisture Sorption at 95% RH ([1]; listed as C): 0.17 wt %

Cc1nc2cccc(N)c2c(=O)n1C1CCC(=O)NC1=O (stereo not shown) [Form D, 3-(5-amino-2-methyl-4-oxo-4H-quinazolin-3-yl)-piperidine-2,6-dione]
Moisture Sorption at 95% RH ([1]; listed as D): 4.11 wt %

Cc1nc2cccc(N)c2c(=O)n1C1CCC(=O)NC1=O (stereo not shown) [Form E, 3-(5-amino-2-methyl-4-oxo-4H-quinazolin-3-yl)-piperidine-2,6-dione]
Moisture Sorption at 95% RH ([1]; listed as E): 0.26 wt %

— patent US9751853B2, “Solid forms of 3-(5-amino-2-methyl-4-oxo-4H-quinazolin-3-yl)-piperidine-2,6-dione, and their pharmaceutical compositions and uses” (Celgene Corporation, priority 2011, dated 2017)
